Experimental findings from patent US20100028366A1, “SYNERGISTIC EFFECT BETWEEN A […] AND ANOTHER OXIDATIVE INDUCING SYSTEM FOR TREATING TUMORS” (priority 2005, published 2010) are described below.

Series [1] deals with W&Wlis cells. As to the kind of experiment: Determination of the extracellular peroxide concentration. The class given is cell-based, canine. The conditions noted are these: 48 hours; 0.5 mg/ml of linamarin and/or 5 mEU/ml of glucose oxidase; control approximately 20 μM. The procedure:
The H2O2 levels (FIG. 3B) produced extracellularly in the combined therapy were further studied in the invention. To do so, the amount of H2O2 present in the culture medium of W&Wlis cells at 48 hours in a treatment with 0.5 mg/ml of linamarin, in the presence of 5 mEU/ml of glucose oxidase or in the combination of both treatments, was analyzed although positive results were also obtained using other concentrations.
The samples to be analyzed were diluted in 1 ml of 0.1 M phosphate buffer pH 7.4. Then 3.7 EU/ml of peroxidase (Sigma-Aldrich, St. Louis, USA) and 0.1 mg/ml of ortho-dianisidine (Sigma-Aldrich, St. Louis, USA) were added. The samples were incubated at room temperature for 30 minutes and absorbances at 436 nm were determined. The H2O2 concentration was obtained by interpolation of the data obtained in a standard line performed with increasing concentrations of H2O2.

Series [2] has as its system W&Wlis tumors. In words: Xenotransplant model, W&Wlis tumors in immunodeficient mice. The class given is in vivo. The following applies: intratumoral. The procedure:
In addition, a dose range for linamarin was evaluated in immunodeficient (nude) mice weighing 20 grams, inoculated with W&W tumor cells which stably expressed linamarase (W&Wlis). When the tumor reached an approximate size of 50 mm^3, the mice were treated with a daily dose of intratumoral linamarin at different concentrations (0.5; 0.35; 0.25 or 0.10 mg lin/g of weight of the animal).
Another approach carried out for the invention was the use of adenoviruses carrying the linamarase gene (adenolis) in W&W cell tumors induced in immunodeficient mice. 10^6 cells were subcutaneously inoculated in both flanks in mice (n=18). Part of the animals (n=8) received W&Wlis cells which already expressed linamarase, while others (n=10) were inoculated with W&W cells and only when the tumor had developed was it locally infected with adenolis. The animals inoculated with W&Wlis were treated daily with 0.25 mg lin and 0.1 EU GO/g in the largest tumor at the beginning of treatment (approximately 50 mm^3) (FIGS. 7G and 7H). The animals showing W&W tumors were treated with infection cycles with 10^9 IU of adenolis, followed by a two-day treatment with 0.25 mg lin and 0.1 EU GO/g (FIGS. 7I and 7J). The progression of the tumors was evaluated every two days.
Immunodeficient (nude strain), athymic mice weighing approximately 20 grams and 2 months old were used. They were inoculated with 1-2×10^6 cells (W&W or W&Wlis) subcutaneously in both flanks of the mice by means of an injection with a volume of 50 μl in complete PBS (supplemented with calcium and magnesium ions) with 0.1% glucose. The size of the tumors (pi π/6×height×width×length) was measured with a calibrator.
A large group of mice (n=8) were inoculated with 1-2×10^6 W&Wlis cells as previously described. When the tumors reached a mean size of 30-50 mm^3, the tumors of one flank were treated daily with 0.25 mg of linamarin and 0.1 EU of glucose oxidase/g of weight of the animal. When the untreated tumors reached a size of about 2000 mm^3 the animals were sacrificed and it was considered the end of treatment. The data was analyzed statistically by Student's t test, considering a level of significance of 5%.

Each structure is given as a SMILES string.

Turning to `CC(C)(C#N)O[C@@H]1O[C@H](CO)[C@@H](O)[C@H](O)[C@H]1O` [lin, 2-hydroxy-isobutyronitrile-β-D-glucopyranoside], the “extracellular H2O2 concentration in the culture medium” value in series [1] is “did not cause significant variations”. In addition, the “therapeutic effect on tumor growth” value is given as “no therapeutic effect” in series [2] (0.1 mg lin/g daily, n=4) and “significant reduction of the growth of the treated tumor” in series [2] (0.25 mg lin/g daily, after the tenth day of treatment, p=0.05, n=6). For the same compound, the death of animals entry is on record as “death of three of the four animals” in series [2] (0.35 mg lin/g daily, fifth day of treatment); “all the animals” in series [2] (0.5 mg lin/g daily, between the fourth and fifth day of treatment).
